Laboratory results: patent US11767310B2, “Nicotinamide RIPK1 inhibitors” (AbbVie Inc., priority 2021, dated 2023)
Like-named read-outs stand apart in the source and are kept apart here.

Experiments:
Assay in all cases: Kinase binding screen
Conditions in all cases: read-out: Percent Control at 100 nM Compound Concentration
MET(Y1235D) = MET(Y1235D) (Homo sapiens (Human), UniProt P08581, Y1235D)
NEK11 = NEK11 (Homo sapiens (Human), UniProt Q8NG66)
FLT4 = FLT4 (Homo sapiens (Human), UniProt P35916)
DCAMKL3 = DCAMKL3 (Homo sapiens (Human), UniProt Q9C098)
Sequence of DCAMKL3 (Q9C098 whole entry, looked up): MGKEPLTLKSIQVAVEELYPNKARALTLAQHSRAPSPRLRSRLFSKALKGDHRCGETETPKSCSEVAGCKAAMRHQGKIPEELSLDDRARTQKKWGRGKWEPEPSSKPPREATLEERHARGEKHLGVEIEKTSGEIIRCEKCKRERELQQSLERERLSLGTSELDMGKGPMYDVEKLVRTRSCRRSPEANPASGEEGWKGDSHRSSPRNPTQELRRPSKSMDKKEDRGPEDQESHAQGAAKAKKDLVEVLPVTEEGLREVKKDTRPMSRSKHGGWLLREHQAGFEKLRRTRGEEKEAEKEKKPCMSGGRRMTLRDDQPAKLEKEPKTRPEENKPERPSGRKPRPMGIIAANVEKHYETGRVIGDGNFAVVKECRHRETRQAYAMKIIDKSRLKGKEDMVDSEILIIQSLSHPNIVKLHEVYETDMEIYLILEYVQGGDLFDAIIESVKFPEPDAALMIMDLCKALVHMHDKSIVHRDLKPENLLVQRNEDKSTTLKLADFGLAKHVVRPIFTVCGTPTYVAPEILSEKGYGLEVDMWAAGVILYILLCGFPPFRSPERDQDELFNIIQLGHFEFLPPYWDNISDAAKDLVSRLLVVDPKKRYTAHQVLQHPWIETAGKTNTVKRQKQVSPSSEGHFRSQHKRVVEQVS

ROCK2 = ROCK2 (Homo sapiens (Human), UniProt O75116)
MET(M1250T) = MET(M1250T) (Homo sapiens (Human), UniProt P08581, M1250T)
Sequence of MET(M1250T) (P08581 25-1390 M1250T): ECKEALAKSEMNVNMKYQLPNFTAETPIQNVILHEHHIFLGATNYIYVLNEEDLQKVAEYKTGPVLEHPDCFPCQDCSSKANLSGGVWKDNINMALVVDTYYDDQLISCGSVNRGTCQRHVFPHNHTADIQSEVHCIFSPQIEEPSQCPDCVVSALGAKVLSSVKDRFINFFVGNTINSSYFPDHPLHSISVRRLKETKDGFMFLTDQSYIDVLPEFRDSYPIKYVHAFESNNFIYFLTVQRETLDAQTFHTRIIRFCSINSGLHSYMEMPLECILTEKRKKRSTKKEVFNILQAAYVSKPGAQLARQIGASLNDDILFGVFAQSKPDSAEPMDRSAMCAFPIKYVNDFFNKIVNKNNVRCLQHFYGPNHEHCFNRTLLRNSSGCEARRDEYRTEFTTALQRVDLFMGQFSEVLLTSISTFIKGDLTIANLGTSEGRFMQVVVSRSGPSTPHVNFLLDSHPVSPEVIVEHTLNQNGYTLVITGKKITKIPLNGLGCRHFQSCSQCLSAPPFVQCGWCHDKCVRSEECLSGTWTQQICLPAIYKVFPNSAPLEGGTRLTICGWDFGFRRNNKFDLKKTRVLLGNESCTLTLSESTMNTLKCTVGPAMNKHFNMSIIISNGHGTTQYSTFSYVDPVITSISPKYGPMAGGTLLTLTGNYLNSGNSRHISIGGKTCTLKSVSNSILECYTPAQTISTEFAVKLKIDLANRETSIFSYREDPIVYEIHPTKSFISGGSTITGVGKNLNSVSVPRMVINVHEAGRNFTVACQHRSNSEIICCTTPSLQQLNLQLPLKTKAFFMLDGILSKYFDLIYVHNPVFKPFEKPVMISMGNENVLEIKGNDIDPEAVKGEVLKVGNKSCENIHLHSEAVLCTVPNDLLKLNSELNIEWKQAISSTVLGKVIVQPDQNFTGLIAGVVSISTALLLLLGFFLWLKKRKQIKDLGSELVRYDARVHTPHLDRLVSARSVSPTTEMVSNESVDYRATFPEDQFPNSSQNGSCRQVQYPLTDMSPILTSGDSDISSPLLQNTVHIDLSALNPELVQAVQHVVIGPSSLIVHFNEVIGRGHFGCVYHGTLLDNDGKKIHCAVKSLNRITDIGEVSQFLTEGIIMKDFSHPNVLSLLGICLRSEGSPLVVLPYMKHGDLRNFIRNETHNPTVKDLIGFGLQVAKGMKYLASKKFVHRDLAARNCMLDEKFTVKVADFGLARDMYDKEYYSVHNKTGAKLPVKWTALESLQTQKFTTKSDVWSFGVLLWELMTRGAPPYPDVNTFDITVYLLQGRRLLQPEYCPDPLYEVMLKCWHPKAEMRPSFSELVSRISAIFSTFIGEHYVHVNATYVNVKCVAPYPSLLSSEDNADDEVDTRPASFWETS

PRKCE = PRKCE (Homo sapiens (Human), UniProt Q02156)
Sequence of PRKCE (Q02156 whole entry): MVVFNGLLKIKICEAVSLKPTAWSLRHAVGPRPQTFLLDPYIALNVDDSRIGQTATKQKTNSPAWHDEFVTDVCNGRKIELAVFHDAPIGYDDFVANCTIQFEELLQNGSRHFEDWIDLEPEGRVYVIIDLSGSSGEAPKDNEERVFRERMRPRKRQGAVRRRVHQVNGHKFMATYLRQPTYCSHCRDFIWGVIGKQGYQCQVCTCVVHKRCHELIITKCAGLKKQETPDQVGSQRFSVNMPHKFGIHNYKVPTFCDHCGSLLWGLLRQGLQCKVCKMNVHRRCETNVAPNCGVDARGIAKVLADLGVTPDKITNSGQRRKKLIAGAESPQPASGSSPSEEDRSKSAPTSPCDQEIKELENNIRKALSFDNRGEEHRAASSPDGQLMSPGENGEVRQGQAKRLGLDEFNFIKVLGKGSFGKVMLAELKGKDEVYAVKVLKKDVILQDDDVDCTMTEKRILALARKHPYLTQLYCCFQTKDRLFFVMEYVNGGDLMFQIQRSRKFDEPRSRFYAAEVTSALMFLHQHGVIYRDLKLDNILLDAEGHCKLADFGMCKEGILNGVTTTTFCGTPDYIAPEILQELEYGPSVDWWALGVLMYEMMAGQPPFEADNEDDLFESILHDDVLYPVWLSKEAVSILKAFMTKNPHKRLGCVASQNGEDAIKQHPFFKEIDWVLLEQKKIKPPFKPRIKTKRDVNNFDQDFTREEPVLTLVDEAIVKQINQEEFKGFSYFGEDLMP

CSNK1G1 = CSNK1G1 (Homo sapiens (Human), UniProt Q9HCP0)
EPHB1 = EPHB1 (Homo sapiens (Human), UniProt P54762)
ZAK = ZAK (Homo sapiens (Human), UniProt Q9NYL2)
[1] = molecular target: RSK3(Kin.Dom.1-N-terminal) (Homo sapiens (Human), UniProt Q15349)
TRPM6 = TRPM6 (Homo sapiens (Human), UniProt Q9BX84)
CHEK2 = CHEK2 (Homo sapiens (Human), UniProt O96017)
CAMK1B = CAMK1B (Homo sapiens (Human), UniProt Q6P2M8)
PKN2 = PKN2 (Homo sapiens (Human), UniProt Q16513)
FLT1 = FLT1 (Homo sapiens (Human), UniProt P17948)
PAK1 = PAK1 (Homo sapiens (Human), UniProt Q13153)
Sequence of PAK1 (Q13153 whole entry): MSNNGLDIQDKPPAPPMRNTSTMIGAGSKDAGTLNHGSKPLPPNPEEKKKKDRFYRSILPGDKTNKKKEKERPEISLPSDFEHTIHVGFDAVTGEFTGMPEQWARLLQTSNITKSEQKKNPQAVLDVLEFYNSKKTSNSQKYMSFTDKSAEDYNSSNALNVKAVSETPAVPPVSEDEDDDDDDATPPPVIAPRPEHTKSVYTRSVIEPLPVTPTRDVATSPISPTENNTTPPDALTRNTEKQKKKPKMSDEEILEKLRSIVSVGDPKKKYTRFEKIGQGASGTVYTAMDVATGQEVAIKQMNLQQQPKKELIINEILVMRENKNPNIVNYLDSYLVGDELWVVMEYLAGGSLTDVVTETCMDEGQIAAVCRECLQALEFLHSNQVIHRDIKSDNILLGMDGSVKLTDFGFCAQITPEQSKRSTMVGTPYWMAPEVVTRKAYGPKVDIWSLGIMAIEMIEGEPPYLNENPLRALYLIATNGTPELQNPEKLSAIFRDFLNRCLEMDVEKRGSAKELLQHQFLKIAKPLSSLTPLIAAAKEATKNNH

EPHA3 = EPHA3 (Homo sapiens (Human), UniProt P29320)
YSK4 = YSK4 (Homo sapiens (Human), UniProt Q56UN5)
Sequence of YSK4 (Q56UN5 whole entry): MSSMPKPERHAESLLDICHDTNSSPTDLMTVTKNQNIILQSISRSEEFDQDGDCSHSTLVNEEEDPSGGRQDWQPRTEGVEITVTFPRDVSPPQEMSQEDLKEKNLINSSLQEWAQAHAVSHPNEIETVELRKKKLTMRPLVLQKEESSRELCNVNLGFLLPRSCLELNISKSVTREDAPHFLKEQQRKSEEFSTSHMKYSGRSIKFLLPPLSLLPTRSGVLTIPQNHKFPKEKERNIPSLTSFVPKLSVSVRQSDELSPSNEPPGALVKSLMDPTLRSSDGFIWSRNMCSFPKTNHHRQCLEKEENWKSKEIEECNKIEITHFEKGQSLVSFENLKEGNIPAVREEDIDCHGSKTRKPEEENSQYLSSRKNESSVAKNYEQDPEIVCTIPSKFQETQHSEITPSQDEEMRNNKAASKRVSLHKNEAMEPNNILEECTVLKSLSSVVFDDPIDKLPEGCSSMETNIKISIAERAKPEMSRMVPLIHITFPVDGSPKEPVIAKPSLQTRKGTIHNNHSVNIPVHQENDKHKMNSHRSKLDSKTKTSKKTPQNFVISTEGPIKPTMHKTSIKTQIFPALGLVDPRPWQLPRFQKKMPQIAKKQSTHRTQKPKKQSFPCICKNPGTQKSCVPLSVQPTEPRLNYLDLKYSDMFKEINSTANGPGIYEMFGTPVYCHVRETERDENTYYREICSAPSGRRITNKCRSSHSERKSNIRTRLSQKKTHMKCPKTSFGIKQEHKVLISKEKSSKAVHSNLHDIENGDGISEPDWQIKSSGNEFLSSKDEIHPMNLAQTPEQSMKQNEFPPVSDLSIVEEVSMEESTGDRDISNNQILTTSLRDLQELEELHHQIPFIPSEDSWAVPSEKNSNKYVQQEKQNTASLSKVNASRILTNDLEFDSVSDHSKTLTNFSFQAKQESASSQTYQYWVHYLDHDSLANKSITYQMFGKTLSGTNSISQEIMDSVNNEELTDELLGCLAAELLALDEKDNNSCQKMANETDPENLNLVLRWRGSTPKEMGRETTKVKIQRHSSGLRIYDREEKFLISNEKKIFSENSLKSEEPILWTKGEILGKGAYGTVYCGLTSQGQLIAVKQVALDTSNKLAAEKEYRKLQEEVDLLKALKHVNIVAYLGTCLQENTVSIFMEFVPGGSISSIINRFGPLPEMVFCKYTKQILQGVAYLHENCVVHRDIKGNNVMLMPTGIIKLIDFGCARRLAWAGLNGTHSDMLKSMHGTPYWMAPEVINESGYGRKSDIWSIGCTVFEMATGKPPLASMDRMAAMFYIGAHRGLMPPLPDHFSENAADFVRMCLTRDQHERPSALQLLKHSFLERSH

FLT3 = FLT3 (Homo sapiens (Human), UniProt P36888)
FGFR1 = FGFR1 (Homo sapiens (Human), UniProt P11362)
CLK1 = CLK1 (Homo sapiens (Human), UniProt P49759)
PIM3 = PIM3 (Homo sapiens (Human), UniProt Q86V86)
MINK = MINK (Homo sapiens (Human), UniProt Q8N4C8)
EGFR(S752-I759del) = EGFR(S752-I759del) (Homo sapiens (Human), UniProt P00533, DEL752-759)
[2] = molecular target: RPS6KA4(Kin.Dom.1-N-terminal) (Homo sapiens (Human), UniProt O75676)
ERK2 = ERK2 (Homo sapiens (Human), UniProt P28482)
SRPK2 = SRPK2 (Homo sapiens (Human), UniProt P78362)

In the case of CN(C[C@@H](O)Cc1ccccc1)C(=O)c1cncc(C#Cc2cnn(C(F)F)c2)c1 [Example 2, (S)-5-((1-(difluoromethyl)-1H-pyrazol-4-yl)ethynyl)-N-(2-hydroxy-3-phenylpropyl)-N-methylnicotinamide], the remaining activity at 0.1 µM (MET(Y1235D); MET(Y1235D)) is reported as 98%, the remaining activity at 0.1 µM (NEK11; NEK11) is reported as 100% and the remaining activity at 0.1 µM (FLT4; FLT4) is reported as 100%. For the same molecule, the remaining activity at 0.1 µM (DCAMKL3; DCAMKL3) was 100%, the remaining activity at 0.1 µM (ROCK2; ROCK2) was 100% and the remaining activity at 0.1 µM (MET(M1250T); MET(M1250T)) was 100%. The remaining activity at 0.1 µM (PRKCE; PRKCE) was 72%, the remaining activity at 0.1 µM (CSNK1G1; CSNK1G1) was 100% and the remaining activity at 0.1 µM (EPHB1; EPHB1) was 100%. It also gave a remaining activity at 0.1 µM (ZAK; ZAK) of 100%, a remaining activity at 0.1 µM ([1]; RSK3(Kin.Dom.1-N-terminal)) of 97% and a remaining activity at 0.1 µM (TRPM6; TRPM6) of 99%. It also gave a remaining activity at 0.1 µM (CHEK2; CHEK2) of 100%, a remaining activity at 0.1 µM (CAMK1B; CAMK1B) of 82% and a remaining activity at 0.1 µM (PKN2; PKN2) of 97%. It also gave a remaining activity at 0.1 µM (FLT1; FLT1) of 100%, a remaining activity at 0.1 µM (PAK1; PAK1) of 100% and a remaining activity at 0.1 µM (EPHA3; EPHA3) of 100%. For the same molecule, the remaining activity at 0.1 µM (YSK4; YSK4) was 99%, the remaining activity at 0.1 µM (FLT3; FLT3) was 100% and the remaining activity at 0.1 µM (FGFR1; FGFR1) was 94%. For the same molecule, the remaining activity at 0.1 µM (CLK1; CLK1) was 100%, the remaining activity at 0.1 µM (PIM3; PIM3) was 100% and the remaining activity at 0.1 µM (MINK; MINK) was 100%. It also gave a remaining activity at 0.1 µM (EGFR(S752-I759del); EGFR(S752-I759del)) of 100%, a remaining activity at 0.1 µM ([2]; RPS6KA4(Kin.Dom.1-N-terminal)) of 97% and a remaining activity at 0.1 µM (ERK2; ERK2) of 100%. For the same molecule, the remaining activity at 0.1 µM (SRPK2; SRPK2) was 93%.

With CN(C[C@H](Cc1ccccc1)OP(=O)(O)O)C(=O)c1cncc(C#Cc2cnn(C(F)F)c2)c1 [Example 19, (S)-1-(5-((1-(difluoromethyl)-1H-pyrazol-4-yl)ethynyl)-N-methylnicotinamido)-3-phenylpropan-2-yl dihydrogen phosphate] the remaining activity at 0.1 µM (MET(Y1235D)) was 99%, the remaining activity at 0.1 µM (NEK11) was 95% and the remaining activity at 0.1 µM (FLT4) was 100%. The remaining activity at 0.1 µM (DCAMKL3) was 100%, the remaining activity at 0.1 µM (ROCK2) was 100% and the remaining activity at 0.1 µM (MET(M1250T)) was 100%. The remaining activity at 0.1 µM (PRKCE) was 68%, the remaining activity at 0.1 µM (CSNK1G1) was 100% and the remaining activity at 0.1 µM (EPHB1) was 100%. It also gave a remaining activity at 0.1 µM (ZAK) of 100%, a remaining activity at 0.1 µM [1] of 100% and a remaining activity at 0.1 µM (TRPM6) of 95%. For the same molecule, the remaining activity at 0.1 µM (CHEK2) was 100%, the remaining activity at 0.1 µM (CAMK1B) was 83% and the remaining activity at 0.1 µM (PKN2) was 100%. For the same molecule, the remaining activity at 0.1 µM (FLT1) was 100%, the remaining activity at 0.1 µM (PAK1) was 100% and the remaining activity at 0.1 µM (EPHA3) was 100%. For the same molecule, the remaining activity at 0.1 µM (YSK4) was 90%, the remaining activity at 0.1 µM (FLT3) was 100% and the remaining activity at 0.1 µM (FGFR1) was 95%. For the same molecule, the remaining activity at 0.1 µM (CLK1) was 100%, the remaining activity at 0.1 µM (PIM3) was 100% and the remaining activity at 0.1 µM (MINK) was 100%. It also gave a remaining activity at 0.1 µM (EGFR(S752-I759del)) of 100%, a remaining activity at 0.1 µM [2] of 100% and a remaining activity at 0.1 µM (ERK2) of 100%. The remaining activity at 0.1 µM (SRPK2) was 100%.
